The numbers were not newly measured in article PMC4610388 (European journal of medicinal chemistry, 2015), which cites them from elsewhere.

Data set [1] has as its system mammalian dihydrofolate reductases.
For the next data set, the target named is E. coli DHFR (Escherichia coli, UniProt P0ABQ4). The conditions noted are these: previous study from the authors' lab.
E. coli DHFR, sequence (P0ABQ4 whole entry): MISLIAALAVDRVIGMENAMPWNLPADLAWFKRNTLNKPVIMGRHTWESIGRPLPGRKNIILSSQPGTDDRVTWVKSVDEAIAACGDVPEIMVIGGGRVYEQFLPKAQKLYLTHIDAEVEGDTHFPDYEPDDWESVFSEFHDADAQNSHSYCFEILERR

Regarding `Nc1nnc(-c2cccc(Cl)c2Cl)c(N)n1` [Lamotrigine, 6-(2,3-dichlorophenyl)-1,2,4-triazine-3,5-diamine], the “inhibition of mammalian dihydrofolate reductases” value in data set [1] is “weakly inhibit”. Consider `Nc1nc(N)c2c(ccc3[nH]ccc32)n1` [NSC339578, 7H–pyrrolo [3,2-f] quinazoline-1,3-diamine], for which the “slow-onset tight binding behaviour” value on E. coli DHFR is “does not show slow-onset of inhibition”.
